Test results as given in the Kinase Knowledgebase extract (Sharma et al. 2016).

molecular target: MAPK14 (human) (UniProt Q16539); experiment: Inhibition of MAPK14 Kinase Activity
Sequence (Q16539 whole entry, looked up): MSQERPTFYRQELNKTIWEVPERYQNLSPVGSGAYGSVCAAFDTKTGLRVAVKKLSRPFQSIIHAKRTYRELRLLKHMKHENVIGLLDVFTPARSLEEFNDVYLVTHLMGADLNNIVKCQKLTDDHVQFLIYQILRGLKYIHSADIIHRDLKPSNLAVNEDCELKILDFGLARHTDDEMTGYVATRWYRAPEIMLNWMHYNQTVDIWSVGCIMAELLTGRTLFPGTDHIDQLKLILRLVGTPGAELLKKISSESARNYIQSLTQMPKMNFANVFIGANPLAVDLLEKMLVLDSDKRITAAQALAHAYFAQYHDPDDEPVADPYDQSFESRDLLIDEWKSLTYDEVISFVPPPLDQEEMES

Row | IC50 [nM] | SMILES
1 | ≤ 1000 | CC(C)NC(=O)c1csc(-c2[nH]c(CO)nc2-c2ccc(F)cc2)n1
2 | ≤ 1000 | CC(C)NC(=O)c1csc(-c2oc(CN3CCN(C(=O)c4ccc(O)cc4O)CC3)nc2-c2ccc(F)cc2)n1
3 | ≤ 1000 | CC(C)NC(=O)c1csc(-c2c(-c3ccc(F)cc3)noc2CNC(=O)c2cccc3ccccc23)n1
4 | ≤ 1000 | Cc1nc(-c2ccc(F)cc2)c(-c2nc(C(=O)NCCc3ccc(Cl)cc3)cs2)s1
5 | ≤ 1000 | CC(C)NC(=O)c1csc(-c2c(-c3ccc(F)cc3)n[nH]c2C2CCN(C(=O)C(C)(C)O)CC2)n1
6 | ≤ 1000 | CC(C)NC(=O)c1csc(-c2oc(CNCCc3ccc(O)cc3)nc2-c2ccc(F)cc2)n1
7 | ≤ 1000 | CC(C)NC(=O)c1csc(-c2oc(CN3CCN(C(=O)c4cc(O)c(O)c(O)c4)CC3)nc2-c2ccc(F)cc2)n1
8 | ≤ 1000 | CC(C)NC(=O)c1csc(-c2oc(CN3CCN(C(=O)CC4Cc5ccccc5C4)CC3)nc2-c2ccc(F)cc2)n1
9 | ≤ 1000 | Cc1nc(-c2ccc(F)cc2)c(-c2nc(C(=O)NCC3CCCCC3)cs2)s1
10 | ≤ 1000 | CC(C)NC(=O)c1csc(-c2oc(CNC(=O)c3cncc(Br)c3)nc2-c2ccc(F)cc2)n1
11 | ≤ 1000 | Cc1nc(-c2ccc(F)cc2)c(-c2nc(C(=O)NCc3cccnc3)cs2)s1
12 | ≤ 1000 | Cc1nc(-c2ccc(F)cc2)c(-c2nc(C(=O)NCCc3ccc(O)cc3)cs2)s1
13 | ≤ 1000 | CC(C)NC(=O)c1csc(-c2oc(CN3CCN(C(=O)c4ccncc4)CC3)nc2-c2ccc(F)cc2)n1
14 | ≤ 1000 | COc1ccc(NC(=O)c2csc(-c3sc(C)nc3-c3ccc(F)cc3)n2)cc1OC
15 | ≤ 1000 | C#CCNC(=O)c1csc(-c2c(-c3ccc(F)cc3)ncn2C2CCNCC2)n1
16 | ≤ 1000 | CC(C)NC(=O)c1csc(-c2oc(CN3CCN(C(=O)c4c(F)c(F)c(F)c(F)c4F)CC3)nc2-c2ccc(F)cc2)n1
17 | ≤ 1000 | CC(C)NC(=O)c1csc(-c2oc(CNC(=O)c3ccc(OCc4ccccc4)cc3)nc2-c2ccc(F)cc2)n1
18 | ≤ 1000 | COc1cccc(OC)c1C(=O)NCc1nc(-c2ccc(F)cc2)c(-c2nc(C(=O)NC(C)C)cs2)o1

Row | IC50 [nM] | SMILES
19 | ≤ 1000 | CC(C)NC(=O)c1csc(-c2oc(CNC(=O)c3ccc(C=O)cc3)nc2-c2ccc(F)cc2)n1
20 | ≤ 1000 | CC(C)NC(=O)c1csc(-c2oc(CNC(=O)c3c(F)cccc3Cl)nc2-c2ccc(F)cc2)n1
21 | ≤ 1000 | CC(C)NC(=O)c1csc(-c2oc(CNC(C)CO)nc2-c2ccc(F)cc2)n1 (stereo not drawn)
22 | ≤ 1000 | Cc1nc(-c2ccc(F)cc2)c(-c2nc(C(=O)NCc3ccccc3Cl)cs2)s1
23 | ≤ 1000 | COc1cc(CN(C)C(=O)c2csc(-c3sc(C)nc3-c3ccc(F)cc3)n2)cc(OC)c1OC
24 | ≤ 1000 | Cc1nc(-c2ccc(F)cc2)c(-c2nc(C(=O)NCCNC(=O)OC(C)(C)C)cs2)s1
25 | ≤ 1000 | CC(=O)N1CCC(n2cnc(-c3ccc(F)cc3)c2-c2nc(C(=O)NC(C)C)cs2)CC1
26 | ≤ 1000 | CC(C)NC(=O)c1csc(-c2oc(CNC(=O)c3ccc(Oc4cccc(O)c4)cc3)nc2-c2ccc(F)cc2)n1
27 | ≤ 1000 | CC(C)NC(=O)c1csc(-c2oc(CN3CCN(C(=O)C4CCCCC4)CC3)nc2-c2ccc(F)cc2)n1
28 | ≤ 1000 | Cc1nc(-c2ccc(F)cc2)c(-c2nc(C(=O)NCCc3cccc(F)c3)cs2)s1
29 | ≤ 1000 | Cc1ccc([N+](=O)[O-])c(C(=O)NCc2nc(-c3ccc(F)cc3)c(-c3nc(C(=O)NC(C)C)cs3)o2)c1
30 | ≤ 1000 | CC(C)NC(=O)c1csc(-c2c(-c3ccc(F)cc3)n[nH]c2C2CCN(C(=O)c3ccccc3)CC2)n1
31 | ≤ 1000 | C#CCNC(=O)c1csc(-c2c(-c3ccc(F)cc3)ncn2C2CCN(C(=O)CO)CC2)n1
32 | ≤ 1000 | COc1ccc(C(=O)N2CCN(Cc3nc(-c4ccc(F)cc4)c(-c4nc(C(=O)NC(C)C)cs4)o3)CC2)c(OC)c1OC
33 | ≤ 1000 | CONC(=O)c1csc(-c2c(-c3ccc(F)cc3)n[nH]c2C2CCNCC2)n1
34 | ≤ 1000 | CC(C)NC(=O)c1csc(-c2oc(CN3CCN(C(=O)c4ccc5ncccc5c4)CC3)nc2-c2ccc(F)cc2)n1
35 | ≤ 1000 | COCC(C)NC(=O)c1csc(-c2sc(C)nc2-c2ccc(F)cc2)n1 (stereo not drawn)
36 | ≤ 1000 | CC(C)NC(=O)c1csc(-c2oc(CN3CCN(C(=O)c4ccccc4O)CC3)nc2-c2ccc(F)cc2)n1

The remaining lines, values behind:

Row | SMILES | IC50 [nM]
37 | Cc1nc(-c2ccc(F)cc2)c(-c2nc(C(=O)NCCc3ccccc3Cl)cs2)s1 | ≤ 1000
38 | Cc1nc(-c2ccc(F)cc2)c(-c2nc(C(=O)NCCCCO)cs2)s1 | ≤ 1000
39 | COc1ccc(CNCc2nc(-c3ccc(F)cc3)c(-c3nc(C(=O)NC(C)C)cs3)o2)cc1O | ≤ 1000
40 | CC(C)NC(=O)c1csc(-c2oc(CNC(=O)c3c(Cl)cc(Cl)cc3Cl)nc2-c2ccc(F)cc2)n1 | ≤ 1000
41 | CC(C)NC(=O)c1csc(-c2oc(CNC(=O)c3ccccc3[N+](=O)[O-])nc2-c2ccc(F)cc2)n1 | ≤ 1000
42 | Cc1ccccc1C(=O)N1CCC(c2[nH]nc(-c3ccc(F)cc3)c2-c2nc(C(=O)NC(C)C)cs2)CC1 | ≤ 1000
43 | Cc1onc(-c2ccc(Cl)cc2)c1-c1ccn(C(=O)NC2CCCC2)n1 | ≤ 1000
44 | Cc1cccc(CCC(=O)N2CCN(Cc3nc(-c4ccc(F)cc4)c(-c4nc(C(=O)NC(C)C)cs4)o3)CC2)c1 | ≤ 1000
45 | CC(C)NC(=O)c1csc(-c2c(-c3ccc(F)cc3)n[nH]c2C2CCN(C(=O)c3cc(Cl)ccn3)CC2)n1 | ≤ 1000
46 | CC(C)NC(=O)c1csc(-c2oc(CN3CCN(C(=O)C4CCc5ccccc54)CC3)nc2-c2ccc(F)cc2)n1 (stereo not drawn) | ≤ 1000
47 | CC(C)NC(=O)c1csc(-c2c(-c3ccc(F)cc3)noc2CNC(=O)CC#N)n1 | ≤ 1000
48 | CC(C)NC(=O)c1csc(-c2oc(CNC(=O)c3ccc(C#N)cc3)nc2-c2ccc(F)cc2)n1 | ≤ 1000
49 | CC(C)NC(=O)c1csc(-c2[nH]c(N)nc2-c2ccc(F)cc2)n1 | ≤ 1000
50 | CC(C)NC(=O)c1csc(-c2oc(CNC(=O)c3ccc(F)cc3F)nc2-c2ccc(F)cc2)n1 | ≤ 1000
51 | CC(C)NC(=O)c1csc(-c2c(-c3ccc(F)cc3)noc2CN2CCCC2CO)n1 (stereo not drawn) | ≤ 1000
52 | CC(C)NC(=O)c1csc(-c2c(-c3ccc(F)cc3)n[nH]c2C2CCN(C(=O)C=O)CC2)n1 | ≤ 1000
53 | CC(C)NC(=O)c1csc(-c2oc(CN3CCN(C(=O)c4ccc(OC(C)C)cc4)CC3)nc2-c2ccc(F)cc2)n1 | ≤ 1000
54 | CC(C)NC(=O)c1csc(-c2oc(CNC(=O)c3ccc4ncccc4c3)nc2-c2ccc(F)cc2)n1 | ≤ 1000
55 | O=C(NC1CCCCC1)c1csc(-c2c(-c3ccc(F)cc3)ncn2C2CCNCC2)n1 | ≤ 1000
56 | Cc1nc(-c2ccc(F)cc2)c(-c2nc(C(=O)NCCc3cccc(Cl)c3)cs2)s1 | ≤ 1000
57 | Cc1nc(-c2ccc(F)cc2)c(-c2nc(C(=O)Nc3c(C)cccc3C(C)(C)C)cs2)s1 | ≤ 1000
58 | CC(C)NC(=O)c1csc(-c2oc(CN3CCN(C(=O)Cc4ccc(Br)cc4)CC3)nc2-c2ccc(F)cc2)n1 | ≤ 1000
59 | COc1cc(C=CC(=O)NCc2nc(-c3ccc(F)cc3)c(-c3nc(C(=O)NC(C)C)cs3)o2)ccc1O | ≤ 1000
60 | N#CCNC(=O)c1csc(-c2c(-c3ccc(F)cc3)n[nH]c2C2CCNCC2)n1 | ≤ 1000
61 | CC(C)NC(=O)c1csc(-c2c(-c3ccc(F)cc3)n[nH]c2C2CCN(C(=O)Cc3ccccc3O)CC2)n1 | ≤ 1000
62 | Cc1nc(-c2ccc(F)cc2)c(-c2nc(C(=O)NCc3ccc(F)c(F)c3)cs2)s1 | ≤ 1000

Row | SMILES | IC50 [nM]
63 | CC(C)NC(=O)c1csc(-c2oc(CNC(=O)c3ccc(O)cc3O)nc2-c2ccc(F)cc2)n1 | ≤ 1000
64 | COCCOCC(=O)N1CCC(c2[nH]nc(-c3ccc(F)cc3)c2-c2nc(C(=O)NC(C)C)cs2)CC1 | ≤ 1000
65 | Cc1nc(-c2ccc(F)cc2)c(-c2nc(C(=O)NCC3CC3)cs2)s1 | ≤ 1000
66 | CC(C)NC(=O)c1csc(-c2oc(CN3CCN(C(=O)c4cc(O)ccc4O)CC3)nc2-c2ccc(F)cc2)n1 | ≤ 1000
67 | CC(C)NC(=O)c1csc(-c2c(-c3ccc(F)cc3)noc2CNCC#N)n1 | ≤ 1000
68 | Cc1nc(-c2ccc(F)cc2)c(-c2nc(C(=O)NCc3ccc(F)c(Cl)c3)cs2)s1 | ≤ 1000
69 | COc1cc(C=CC(=O)N2CCN(Cc3nc(-c4ccc(F)cc4)c(-c4nc(C(=O)NC(C)C)cs4)o3)CC2)ccc1O | ≤ 1000
70 | CNC(=O)c1csc(-c2c(-c3ccc(F)cc3)n[nH]c2C2CCNCC2)n1 | ≤ 1000
71 | Cc1ccc(S(=O)(=O)NCCNC(=O)c2csc(-c3sc(C)nc3-c3ccc(F)cc3)n2)cc1 | ≤ 1000
72 | CC(C)CC(NC(=O)OC(C)(C)C)C(=O)N1CCC(c2[nH]nc(-c3ccc(F)cc3)c2-c2nc(C(=O)NC(C)C)cs2)CC1 (stereo not drawn) | ≤ 1000
73 | COc1ccc(Br)c(C(=O)NCc2nc(-c3ccc(F)cc3)c(-c3nc(C(=O)NC(C)C)cs3)o2)c1 | ≤ 1000
74 | Cc1[nH]nc(-c2ccc(F)cc2)c1-c1nc(C(=O)NCc2ccc3c(c2)OCO3)cs1 | ≤ 1000
75 | Cc1nc(-c2ccc(F)cc2)c(-c2nc(C(=O)NC3CCCCC3C)cs2)s1 (stereo not drawn) | ≤ 1000
76 | CC(C)NC(=O)c1csc(-c2oc(CNC(=O)c3cc(F)ccc3[N+](=O)[O-])nc2-c2ccc(F)cc2)n1 | ≤ 1000
77 | CC(C)NC(=O)c1csc(-c2oc(CN3CCN(C(=O)c4ccc5cccc(O)c5n4)CC3)nc2-c2ccc(F)cc2)n1 | ≤ 1000
78 | Cc1ccc([N+](=O)[O-])c(C(=O)NCc2onc(-c3ccc(F)cc3)c2-c2nc(C(=O)NC(C)C)cs2)c1 | ≤ 1000
79 | CC(C)NC(=O)c1csc(-c2c(-c3ccc(F)cc3)noc2CNC(=O)Cc2cccc(O)c2)n1 | ≤ 1000
80 | CC(C)NC(=O)c1csc(-c2oc(CNC(=O)c3cc4cc(Cl)ccc4o3)nc2-c2ccc(F)cc2)n1 | ≤ 1000
81 | CC(C)NC(=O)c1csc(-c2c(-c3ccc(F)cc3)noc2CNC(=O)C(O)CCl)n1 (stereo not drawn) | ≤ 1000
82 | CC(C)NC(=O)c1csc(-c2oc(CN3CCN(C(=O)CCc4ccccc4O)CC3)nc2-c2ccc(F)cc2)n1 | ≤ 1000
83 | CC(C)NC(=O)c1csc(-c2oc(CN3CCN(C(=O)c4cccc(O)c4O)CC3)nc2-c2ccc(F)cc2)n1 | ≤ 1000
84 | Cc1nc(-c2ccc(F)cc2)c(-c2nc(C(=O)NCCc3ccccc3F)cs2)s1 | ≤ 1000
85 | CC(C)NC(=O)c1csc(-c2oc(CNC(=O)C(C)O)nc2-c2ccc(F)cc2)n1 (stereo not drawn) | ≤ 1000
86 | CCC(C)NC(=O)n1ccc(-c2c(-c3ccc(Cl)cc3)noc2C)n1 (stereo not drawn) | ≤ 1000
87 | COc1ccccc1CNC(=O)c1csc(-c2sc(C)nc2-c2ccc(F)cc2)n1 | ≤ 1000
88 | Cc1nc(-c2ccc(F)cc2)c(-c2nc(C(=O)NC3CCCCC3)cs2)s1 | ≤ 1000
